Laboratory results as given in the supplement of paper PMC11208160.

Assay: recombinant UMI read abundance after kanamycin selection (control-corrected) (log10(CPM+1)); higher = more efficient recombination; extreme values may be limits of the assay; sequences stand for … in AGTGCAGAGAAAATCGGCCAGTTTTCTCTGCCTGCAGTCCGCATGCCGTGGGACCCCTTGGGTTCTAACCTGTTGCCTAGATTTATGCAGCGGACTGCCTTTCTCCCAAAGTGATAAACCGG…AGGTTGGTTTCACT; site = the 11-nt donor
How it was run: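 Reported values are log10(CPM+1) from a pooled Escherichia coli screen of donor and donor-binding-loop pairs for the IS621 bridge recombinase. Selection used IPTG (0.07 mM) plus kanamycin, against unselected plating, each in two replicates. Recombinant UMIs were amplified across the donor–target junction, sequenced, converted to CPM, averaged over replicates and scaled by control-derived factors.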
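Also: IS621 bridge recombinase in Escherichia coli cells against a fixed T5 target plasmid.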

| Sequence | recombinant UMI read abundance (log10) |
| --- | --- |
| CAAGTCACATGGACCGGTTTTCCCGGTAATCCGTATTTGGG (site CAAGGCACTCC) | 0.0072 |
| CAAGTCACATGGACCGGTTTTCCCGGTAATCCGTATTTGGG (site CAAGTAACTCC) | 0.0617 |
| CAAGTCACATGGACCGGTTTTCCCGGTAATCCGTATTTGGG (site CAAGTCACTAC) | 0.0634 |
| CAAGTCACATGGACCGGTTTTCCCGGTAATCCGTATTTGGG (site CAAGTCACTCA) | 0.0308 |
| CAAGTCACATGGACCGGTTTTCCCGGTAATCCGTATTTGGG (site CAAGTCACTCC) | 0.013 |
| CAAGTCACATGGACCGGTTTTCCCGGTAATCCGTATTTGGG (site CAAGTCACTCG) | 0 |
| CAAGTCACATGGACCGGTTTTCCCGGTAATCCGTATTTGGG (site CAAGTCACTCT) | 0.593 |
| CAAGTCACATGGACCGGTTTTCCCGGTAATCCGTATTTGGG (site CAAGTCACTGC) | 0 |
| CAAGTCACATGGACCGGTTTTCCCGGTAATCCGTATTTGGG (site CAAGTCACTTC) | 0.00273 |
| CAAGTCACATGGACCGGTTTTCCCGGTAATCCGTATTTGGG (site CAAGTCCCTCC) | 0.0287 |
| CAAGTCACATGGACCGGTTTTCCCGGTAATCCGTATTTGGG (site CAAGTCGCTCC) | 0.0204 |
| CAAGTCACATGGACCGGTTTTCCCGGTAATCCGTATTTGGG (site CAAGTCTCTCC) | 0.493 |
| CAAGTCACATGGACCGGTTTTCCCGGTAATCCGTATTTGGG (site CAAGTGACTCC) | 0.0398 |
| CAAGTCACATGGACCGGTTTTCCCGGTAATCCGTATTTGGG (site CAAGTTACTCC) | 0.161 |
| CAAGTCACATGGACCGGTTTTCCCGGTAATCCGTATTTGGG (site CAATTCACTCC) | 0.0165 |
| CAAGTCACATGGACCGGTTTTCCCGGTAATCCGTATTTGGG (site CACGTCACTCC) | 0 |
| CAAGTCACATGGACCGGTTTTCCCGGTAATCCGTATTTGGG (site CAGGTCACTCC) | 0.0212 |
| CAAGTCACATGGACCGGTTTTCCCGGTAATCCGTATTTGGG (site CATGTCACTCC) | 0.0038 |
| CAAGTCACATGGACCGGTTTTCCCGGTAATCCGTATTTGGG (site CCAGTCACTCC) | 0.0443 |
| CAAGTCACATGGACCGGTTTTCCCGGTAATCCGTATTTGGG (site CGAGTCACTCC) | 0.00994 |
| CAAGTCACATGGACCGGTTTTCCCGGTAATCCGTATTTGGG (site CTAGTCACTCC) | 0.0139 |
| CAAGTCACATGGACCGGTTTTCCCGGTAATCCGTATTTGGG (site GAAGTCACTCC) | 0.0173 |
| CAAGTCACATGGACCGGTTTTCCCGGTAATCCGTATTTGGG (site TAAGTCACTCC) | 0.0086 |

| Sequence | recombinant UMI read abundance (log10) |
| --- | --- |
| CAAGTCGCATGGACCGGTTTTCCCGGTAATCCGTATTTGGT (site CAAGTCGCTAC) | 1.77 |
| CAAGTGCCATGGACCGGTTTTCCCGGTAATCCGTATTTGTA (site CAAGTGCCTTA) | 1.56 |
| CAAGTTACATGGACCGGTTTTCCCGGTAATCCGTATTTGGG (site CAAGTAACTCC) | 0.277 |
| CAAGTTACATGGACCGGTTTTCCCGGTAATCCGTATTTGGG (site CAAGTCACTCC) | 0.252 |
| CAAGTTACATGGACCGGTTTTCCCGGTAATCCGTATTTGGG (site CAAGTGACTCC) | 0.0286 |
| CAAGTTACATGGACCGGTTTTCCCGGTAATCCGTATTTGGG (site CAAGTTACTCC) | 0.861 |
| CAATCATCATGGACCGGTTTTCCCGGTAATCCGTATTTGAT (site CAATCATCTAT) | 0.435 |
| CAATCATCATGGACCGGTTTTCCCGGTAATCCGTATTTGAT (site CGATCATCTAG) | 0 |
| CAATCATCATGGACCGGTTTTCCCGGTAATCCGTATTTGCC (site CAATCATCTGG) | 0.733 |
| CAATCATCATGGACCGGTTTTCCCGGTAATCCGTATTTGCC (site CGATCATCTAG) | 0 |
| CAATCCTCATGGACCGGTTTTCCCGGTAATCCGTATTTGCC (site CAATCCTCTGG) | 1.54 |
| CAATCCTCATGGACCGGTTTTCCCGGTAATCCGTATTTGCC (site CACTCCTCTGG) | 1.14 |
| CAATCCTCATGGACCGGTTTTCCCGGTAATCCGTATTTGCC (site CAGTCCTCTGG) | 0 |
| CAATCCTCATGGACCGGTTTTCCCGGTAATCCGTATTTGCC (site CATTCCTCTGG) | 0.913 |
| CAATCGGCATGGACCGGTTTTCCCGGTAATCCGTATTTGAC (site CAATCGGCTGT) | 1.77 |
| CAATCTCCATGGACCGGTTTTCCCGGTAATCCGTATTTGCC (site CAATCTCCTGG) | 0 |
| CAATGATCATGGACCGGTTTTCCCGGTAATCCGTATTTGAA (site CAATGATCTTT) | 3.01 |
| CAATGATCATGGACCGGTTTTCCCGGTAATCCGTATTTGAA (site CAATGCTCTTT) | 0.0913 |
| CAATGATCATGGACCGGTTTTCCCGGTAATCCGTATTTGAA (site CAATGGTCTTT) | 0.41 |
| CAATGATCATGGACCGGTTTTCCCGGTAATCCGTATTTGAA (site CAATGTTCTTT) | 0.682 |
| CAATGATCATGGACCGGTTTTCCCGGTAATCCGTATTTGCT (site CAATGATCTAG) | 2.19 |
| CAATGATCATGGACCGGTTTTCCCGGTAATCCGTATTTGCT (site CGATCATCTAG) | 0 |
| CAATGCACATGGACCGGTTTTCCCGGTAATCCGTATTTGAA (site CAATGCACTTT) | 1.97 |

| Sequence | recombinant UMI read abundance (log10) |
| --- | --- |
| CAATGCACATGGACCGGTTTTCCCGGTAATCCGTATTTGAA (site CAATGCCCTTT) | 0 |
| CAATGCACATGGACCGGTTTTCCCGGTAATCCGTATTTGAA (site CAATGCGCTTT) | 0.409 |
| CAATGCACATGGACCGGTTTTCCCGGTAATCCGTATTTGAA (site CAATGCTCTTT) | 0.438 |
| CAATGCTCATGGACCGGTTTTCCCGGTAATCCGTATTTGCA (site CAATGCTCTTA) | 1.1 |
| CAATGCTCATGGACCGGTTTTCCCGGTAATCCGTATTTGCA (site CAATGCTCTTC) | 0 |
| CAATGCTCATGGACCGGTTTTCCCGGTAATCCGTATTTGCA (site CAATGCTCTTG) | 2.35 |
| CAATGCTCATGGACCGGTTTTCCCGGTAATCCGTATTTGCA (site CAATGCTCTTT) | 0.353 |
| CAATGCTCATGGACCGGTTTTCCCGGTAATCCGTATTTGGA (site CAATGCTCTTA) | 2.13 |
| CAATGCTCATGGACCGGTTTTCCCGGTAATCCGTATTTGGA (site CAATGCTCTTC) | 2.46 |
| CAATGCTCATGGACCGGTTTTCCCGGTAATCCGTATTTGGA (site CAATGCTCTTG) | 1.83 |
| CAATGCTCATGGACCGGTTTTCCCGGTAATCCGTATTTGGA (site CAATGCTCTTT) | 2.45 |
| CAATTCACATGGACCGGTTTTCCCGGTAATCCGTATTTGCT (site CAATTCACTAG) | 1.32 |
| CAATTCACATGGACCGGTTTTCCCGGTAATCCGTATTTGCT (site CAATTCCCTAG) | 0 |
| CAATTCACATGGACCGGTTTTCCCGGTAATCCGTATTTGCT (site CAATTCGCTAG) | 0.587 |
| CAATTCACATGGACCGGTTTTCCCGGTAATCCGTATTTGCT (site CAATTCTCTAG) | 0 |
| CAATTCCCATGGACCGGTTTTCCCGGTAATCCGTATTTGCC (site CAATTCCCTAG) | 0.635 |
| CAATTCCCATGGACCGGTTTTCCCGGTAATCCGTATTTGCC (site CAATTCCCTCG) | 0.0185 |
| CAATTCCCATGGACCGGTTTTCCCGGTAATCCGTATTTGCC (site CAATTCCCTGG) | 0 |
| CAATTCCCATGGACCGGTTTTCCCGGTAATCCGTATTTGCC (site CAATTCCCTTG) | 0 |
| CAATTCCCATGGACCGGTTTTCCCGGTAATCCGTATTTGGT (site CAATTCCCTAA) | 0.173 |
| CAATTCCCATGGACCGGTTTTCCCGGTAATCCGTATTTGGT (site CAATTCCCTAC) | 0.529 |
| CAATTCCCATGGACCGGTTTTCCCGGTAATCCGTATTTGGT (site CAATTCCCTAG) | 0 |
